Earlier results as cited in patent US8608968B2, “Compositions for bioremediation and methods for using” (Carus Corporation, priority 2006, dated 2013).

conditions: dimensionless

Going from `C=CCl` [Vinyl chloride] to `Cl/C=C\Cl` [cis-1,2-dichloroethene], the “Henry's Law Constant” value falls from 0.95 to 0.31.

Going from `ClC=C(Cl)Cl` [Trichloroethene] to `C` [Methane], the “Henry's Law Constant” value rises from 0.48 to 27.2.

In the case of `C=C` [Ethene], the “Henry's Law Constant” value is listed as 8.76.
